Reference: PMC8457056, “Remodeling of the Fibrillation Pathway of α‐Synuclein by Interaction with Antimicrobial Peptide LL‐III” (Chemistry (Weinheim an Der Bergstrasse, Germany), 2021)

Assays:
[1] = tested on: α‐Syn; assay: phase-contrast light microscopy of α-Syn droplet and fibril formation; type: biochemical, human
Procedure: (§1) Figure 1 A) Phase‐contrast light microscopy snapshots of 100 μM and 200 μM α‐Syn solutions collected 2, 4, 7, 9 and 16 days after incubation of the monomeric α‐Syn. B) Phase‐contrast light microscopy snapshots of a solution of 100 μM α‐Syn in the presence of the reported concentration of antimicrobial peptide LL‐III. Each sample was prepared by mixing the monomeric form of α‐Syn with LL‐III. The pictures were taken after 9 and 16 days of incubation. For the snapshots after 16 days, at each peptide concentration, two different regions of the cover slip were sampled, showing the presence of discrete droplets as well as droplet clusters in solution. C) Phase‐contrast light and fluorescence microscopy snapshots of a 100 μM α‐Syn solution in the presence of 50 μM LL‐III (total peptide concentration, the concentration of the carboxyfluorescein‐labelled peptide was 1 μM). All the experiments were performed at room temperature (25 °C) in 20 mM sodium acetate buffer, pH 5.0. The scale bar is 30 μm.
To reveal if the short antimicrobial peptide LL‐III is able to affect the fibril formation of α‐Syn, we performed a series of microscopy experiments by using 100 μM of α‐Syn and varying the concentration of LL‐III between 50 μM and 500 μM. The samples were prepared by mixing a solution of LL‐III peptide and α‐Syn in the monomeric state and taking pictures after 9 and 16 days. The results are collected in Figure 1B. […] After 9 days, droplets as well as clusters thereof were visible. The size of the clusters depended on the LL‐III concentration. Higher peptide concentrations promoted the association of more droplets. […] To confirm partitioning of the LL‐III peptide in the α‐Syn droplets, complementary fluorescence microscopy experiments were performed using a carboxyfluorescein‐labelled LL‐III peptide.
The lyophilized powders of the labeled and unlabeled LL-III peptide were purchased from GenScript, Germany.
The sequence of the LL-III peptide is NH2-VNWKKIL GKIIKVVK -CONH2. In th e labeled peptide, the fluorophore 6-carboxyfluorescein (FAM) was covalently attached to the N-terminus of the peptide. All the solutions were pre-pared in 20 mM sodium acetate buffer at pH 5.0. Deionized water was used for the buffer and all sample prepara- […]
Expression and purification of α-synuclein
The expression and purification of α-synuclein (α-Syn) was carried out as described before.[1,2] The plasmid was purchased from GenScript. The plasmid pT7- 7 expressing human α-synuclein was transformed into Escherichia coli strain BL21 (DE3). A single colony was picked and inoculated into 100 m l LB medium containing 150 μg/m l ampicillin and grown at 37°C with shaking at 250 rpm until the absorbance at 600 nm reached 0.8. Induction was then carried out by adding 1 mM IPTG (final concentration) and the culture was further grown under similar con-ditions for 3 h. The cells were harvested, resuspended in 0.75 ml of buffer (50 mM Tris-HCl, pH 7.5, 10 mM EDTA and 150 mM NaCl) and frozen at - 80 °C. Tubes containing frozen cells were placed in a boiling water bath for 7 min and the supernatant collected after centrifugation at maximum speed for […]. Streptomycin sulfate (136 μl/ml of supernatant) and glacial acetic acid (228 μl/ml of supernatant) were added and centrifuged for 2 min. Again, t he supernatant was recovered and precipitated with ammonium sulfate (saturated ammonium sulfate at 4°C was used 1:1, v/v, with supernatant). […]

[2] = tested on: α‐Syn droplets; assay: fluorescence microscopy, partitioning of LL-III in α-Syn droplets; type: binding, human; conditions: 100 μM α-Syn, pH 5.0, 25 °C
Procedure: as §1, with “The scale bar is 30 μm.” left out
To reveal if the short antimicrobial peptide LL‐III is able to affect the fibril formation of α‐Syn, we performed a series of microscopy experiments by using 100 μM of α‐Syn and varying the concentration of LL‐III between 50 μM and 500 μM. […] To confirm partitioning of the LL‐III peptide in the α‐Syn droplets, complementary fluorescence microscopy experiments were performed using a carboxyfluorescein‐labelled LL‐III peptide. […]

Substance: NH2-VNWKKIL GKIIKVVK -CONH2 [LL‐III]
- inhibition of α-Syn fibril formation ([1]; 100 μM monomeric α-Syn, LL-III 50–500 μM, 9 and 16 days, 20 mM sodium acetate, pH 5.0, 25 °C): LL‐III inhibits formation of the amyloidogenic state of the protein
- inhibition of fibril formation at 50 μM LL-III ([1]; 100 μM α-Syn, 50 μM LL-III, 20 mM sodium acetate, pH 5.0, 25 °C): the formation of fibrils was already inhibited
- number of droplets ([1]; 100 μM α-Syn, 200 μM and 500 μM LL-III, pH 5.0, 25 °C): the number of droplets was significantly increased
- effect on droplet condensate after 16 days ([1]; 100 μM α-Syn, LL-III 50–500 μM, 16 days, pH 5.0, 25 °C): fostered formation of the droplet condensate
- decondensation of the droplets ([1]; conclusion): No decondensation of the droplets takes place
- partitioning in α-Syn droplets ([2]; 50 μM LL-III of which 1 μM carboxyfluorescein-labelled, 20 mM sodium acetate, excitation 488 nm): most of the LL‐III peptide was localized in the α‐Syn droplets
- droplet clusters after 16 days ([2]; 16 days): formation of LL‐III‐enriched droplet clusters were observed after 16 days
